pIC50: −log10 of the molar value.

The test system of the test is human cytomegalovirus (HCMV). The test can be described thus: Antiviral activity against HCMV in vitro (virus yield / replication assay, IE protein readout). Format: cell-based. To be noted: Human betaherpesvirus 5, 96 h, read-out: HCMV IC50. Here is the method:
Assessing Antiviral Activity Against Human Cytomegalovirus (HCMV)
To assess their antiviral activity, some compounds were tested against human cytomegalovirus (HCMV) in vitro. Human MRCS cells were grown in Dulbecco's Modified Eagle Medium (DMEM) supplemented with 10% fetal bovine serum (FBS) and infected with an HCMV variant expressing GFP tagged pUL99 (the product of late viral UL99 gene) at a multiplicity of 1 infectious unit (IU) per cell. One hour later, medium of the cells was replaced with fresh medium containing the indicated compounds at 50, 25, 12.5, 6.25, 3.13, 1.56, 0.78, 0.39 μM or the carrier in which the compounds are dissolved (DMSO). Final concentration of DMSO was 0.5% in each treatment. Virus yield in the culture supernatant was determined at 96 hours after infection by infecting fresh MRCS cells and assaying viral IE1 protein expression. Results were plotted using either Prism Software or CDD Vault (CDD Vault was developed by Collaborative Drug Discovery, Inc., 1633 Bayshore Hwy, Suite 342, Burlingame, Calif. 94010) in order to calculate IC50s.
Alternatively, antiviral efficacy of some compounds was assessed by inhibition of HCMV replication during in vitro replication assays. Briefly, confluent monolayers of MRCS fibroblasts in a 96 well plate format (˜1.0×10^4 cells/well) were infected with an AD169 strain of HCMV for one hour. After the initial incubation hour, virus containing media was removed and 100 ul of media with sequential dilutions of FORGE compounds added to each well. The concentrations of the FORGE compounds were 50 μM, 25 μM, 12.5 μM, 6.25 μM, 3.125 μM, 1.56 μM, and 0.78125 μM as well as a vehicle control (0.5% DMSO). The concentration of DMSO was constant between all conditions. Assays were performed in duplicate. Infected plates were returned to the incubator and the viral infection was allowed to progress for four days. On the fourth day, 50 μL of cell free supernatant was collected from each well and used to infect a new 96 well plate seeded with a confluent monolayer of MRCS fibroblasts along with 50 μL of media to bring the total volume to 100 μL. The next day the media was removed and the infected monolayer was fixed with cold methanol, and Immediate Early proteins were detected by immunofluorescence assays to quantify the number of cells that were infected with HCMV. IE gene expression was quantified within five random fields within each well and corresponding numbers were utilized to determine viral replication. Results from each well were normalized to the vehicle control well so as to allow a percent reduction from no drug treatment to be calculated. Results were plotted using either Prism Software or CDD Vault in order to calculate IC50s.
For the compound `CC(O)(c1ccc2nccnc2c1)c1cnc(-c2cnc(Cl)s2)s1` (centres unmarked) [Example 1], the pIC50 was 4.67. For `CC(O)(c1ccc2nccnc2c1)c1cnc(N2CCc3ccccc3C2)s1` (centres unmarked) [Example 2] the value was 4.62; for `C=C(c1ccc2nccnc2c1)c1cnc(N2CCc3ccccc3C2)s1` [Example 3], less than 4.30. Under `c1ccc2c(c1)CCN(c1ncc(Cc3ccc4nccnc4c3)s1)C2` [Example 4] stands 5.25; under `O=C(c1ccc2nccnc2c1)c1cnc(N2CCc3ccccc3C2)s1` [Example 5], less than 4.30. As to `OC(c1ccc2nccnc2c1)c1cnc(N2CCc3ccccc3C2)s1` (centres unmarked) [Example 6], the pIC50 was 5.29.

For `CC(c1ccccc1)c1cnc(N2CCc3ccccc3C2)s1` (centres unmarked) [Example 7], the negative-log IC50 (pIC50) was less than 4.30. For `CC(c1cccnc1)c1cnc(N2CCc3ccccc3C2)s1` (centres unmarked) [Example 8] the value was 4.79; for `CC(c1cnc(N2CCc3ccccc3C2)s1)c1c[nH]c2ccccc12` (centres unmarked) [Example 9], 4.90; for `CC(c1ccc2nccnc2c1)c1cnc(N2CCC(c3ccccc3)C2)s1` (centres unmarked) [Example 10], less than 4.60. For `CC(c1ccc2nccnc2c1)c1cnc(N2CCC(Cc3ccccc3)CC2)s1` (centres unmarked) [Example 11] the value was less than 4.60.

For the compound `C=C(c1ccc2nccnc2c1)c1cnc(NCc2ccccc2)s1` [Example 12], the negative logarithm of the IC50 (pIC50) is less than 4.30. Consider `CC(c1ccc(-n2cccn2)cc1)c1cnc(N2CCc3ccccc3C2)s1` (centres unmarked) [Example 13], for which the pIC50 is 5.44. Under `C=C(c1ccc(-n2cccn2)cc1)c1cnc(N2CCc3ccccc3C2)s1` [Example 14] stands 4.54; under `CC(c1ccc(N2CCCCC2)cc1)c1cnc(N2CCc3ccccc3C2)s1` (centres unmarked) [Example 15], less than 4.60. For `c1ccc2c(c1)CCN(c1ncc(Cc3ccc(-n4cccn4)cc3)s1)C2` [Example 16], the negative logarithm of the IC50 (pIC50) was 4.90. Turning to `CC(c1ccc(-c2ncccn2)cc1)c1cnc(N2CCc3ccccc3C2)s1` (centres unmarked) [Example 17], the pIC50 is 5.38. For `CC(c1cccc(-n2cccn2)c1)c1cnc(N2CCc3ccccc3C2)s1` (centres unmarked) [Example 18] the value was 5.80; for `C=C(c1cccc(-n2cccn2)c1)c1cnc(N2CCc3ccccc3C2)s1` [Example 19], 5.15; for `c1cc(Cc2cnc(N3CCc4ccccc4C3)s2)cc(-n2cccn2)c1` [Example 20], 5.05. Take `c1ccc(CNc2ncc(Cc3ccc(-n4cccn4)cc3)s2)cc1` [Example 21]: the pIC50 was less than 4.30. Take `CC(C)OC1CN(c2ncc(Cc3ccc(-n4cccn4)cc3)s2)C1` [Example 22]: the negative-log IC50 (pIC50) is less than 4.30. `c1ccc2c(c1)CCCN2c1ncc(Cc2ccc(-n3cccn3)cc2)s1` [Example 23]: the negative logarithm of the IC50 (pIC50) is less than 4.30. Turning to `CC(C)c1ccc(CNc2ncc(Cc3ccc(-n4cccn4)cc3)s2)cc1` [Example 24], the pIC50 is less than 4.30.

Turning to `c1cnn(-c2ccc(Cc3cnc(N4CCC5OCCCC5C4)s3)cc2)c1` (centres unmarked) [Example 25], the pIC50 is 4.96. For `CC(Nc1ncc(Cc2ccc(-n3cccn3)cc2)s1)c1ccccc1` (centres unmarked) [Example 26] the value was less than 4.30; for `c1cnn(-c2ccc(Cc3cnc(N4CCOCC4)s3)cc2)c1` [Example 27], 4.99. For `N#Cc1ccc2c(c1)CN(c1ncc(Cc3ccc(-n4cccn4)cc3)s1)CC2` [Example 28] the value was 5.01; for `c1ccc(CNc2ncc(Cc3cccc(-n4cccn4)c3)s2)cc1` [Example 29], less than 4.30; for `CC(C)OC1CN(c2ncc(Cc3cccc(-n4cccn4)c3)s2)C1` [Example 30], 4.92. For `c1cc(Cc2cnc(N3CCCc4ccccc43)s2)cc(-n2cccn2)c1` [Example 31] the value was less than 4.30; for `CC(C)c1ccc(CNc2ncc(Cc3cccc(-n4cccn4)c3)s2)cc1` [Example 32], less than 4.30. Turning to `c1cc(Cc2cnc(N3CCC4OCCCC4C3)s2)cc(-n2cccn2)c1` (centres unmarked) [Example 33], the negative logarithm of the IC50 (pIC50) is 4.94.

Regarding `CC(Nc1ncc(Cc2cccc(-n3cccn3)c2)s1)c1ccccc1` (centres unmarked) [Example 34], the negative-log IC50 (pIC50) is less than 4.30. In the case of `c1cc(Cc2cnc(N3CCOCC3)s2)cc(-n2cccn2)c1` [Example 35], the pIC50 was less than 4.57. Under `N#Cc1ccc2c(c1)CN(c1ncc(Cc3cccc(-n4cccn4)c3)s1)CC2` [Example 36] stands 5.48. For the compound `CC(c1cccc(-n2ccnc2)c1)c1cnc(N2CCc3ccc(C#N)cc3C2)s1` (centres unmarked) [Example SBX080], the pIC50 was 5.31.

For the compound `CC(c1cccc(-n2cccn2)c1)c1cnc(N2CCc3ccc(C#N)cc3C2)s1` (centres unmarked) [Example SBX082], the negative-log IC50 (pIC50) is 5.14. For `CC(c1cccc(-n2cccn2)c1)c1cnc(N2CCc3ccc(Br)cc3C2)s1` (centres unmarked) [Example SBX084] the value was 5.42; for `COC(c1cccc(-n2cccn2)c1)c1cnc(N2CCc3ccc(C(N)=O)cc3C2)s1` (centres unmarked) [Example SBX087], 5.85. Under `CC(c1cccc(-n2cccn2)c1)c1cnc(N2CCc3ccc(C(N)=O)cc3C2)s1` (centres unmarked) [Example SBX088] stands 5.80.

For orientation: pIC50 means the negative decadic logarithm of the IC50, by convention in mol/L.

Source of the values: patent publication US11358961B2, “Anti-HCMV compositions and methods” (Evrys Bio, LLC, priority 2014, dated 2022).
